Legend:
platelets = assay: epinephrine-induced platelet aggregation; format: cell-based, human
Description: During the study, optical density was continuously recorded.

rat brain = assay: infarct volume after middle cerebral artery occlusion (MCAO); format: in vivo
Experimental: Adult male rats weighing 200-250 g were anesthetized. Focal cerebral ischemia was induced by ligature of the left common carotid artery and occlusion of the ipsilateral distal middle cerebral artery (MCAO). […] Rats subjected to sham MCAO operation served as control. To determine infarct volume, the brains were removed 48 hours after MCAO and a series of coronal brain slices were obtained and stained with 1% 2,3,5-triphenyl-tetrazolium chloride in 0.1M phosphate buffer. The infarct volume was determined by adding the infarct volumes, which were unstained by the dye.

blood vessels [1] = assay: vasodilation of blood vessels
NO production = assay: stimulation of NO production
blood vessels [2] = assay: inhibition of contraction
β-amyloid = assay: inhibition of β-amyloid
[3] = patients; cited from earlier work
[4] = cited from earlier work
human platelets [5] = assay: ADP-induced human platelet aggregation, preincubation with drug; format: cell-based; conditions: data not shown
Experimental: (§1) 500 microliter of whole blood was diluted with equal volume of 0.9% sodium chloride and prewarmed at 37° C. for 5 minutes. For optical studies, platelet rich plasma blood was mixed gently and immediately centrifuged at 180 g for 10 min to obtain platelet-rich plasma (PRP). Platelet poor plasma (PPP) was obtained by centrifugation at 1800 g for 15 minutes at room temperature. The platelet concentration in the PRP was adjusted to approximately 250×10^9 cells/l using PPP. Readings were taken at 37° C. at a stirring speed of 1200 rpm.
Aggregation agonists were used at a final concentration of 2.0×10^−5 M for ADP, 0.19 mg/ml for collagen, 500 μg/ml for arachidonic acid, and 1×10^−4 M for epinephrine. During the study, optical density was continuously recorded. The 0% and 100% aggregation levels were set with PRP and PPP, respectively. The maximal percentage of platelet aggregation was calculated as the light transmission between platelet-rich and platelet-poor plasma (100%). When a stable baseline was obtained with 450 μl of PRP, 50 μl of one of the aggregation-inducing agents was added. The maximum height and slope of the aggregation curves were determined. After the electrode was immersed in the sample, platelet aggregation to various agonists (collagen, ADP, arachidonic acid or epinephrine) was measured in ohms of impedance. […]

human platelets [6] = assay: collagen-induced human platelet aggregation, preincubation with drug; format: cell-based; conditions: 15 min preincubation; for peak aggregation: collagen (baseline around 89%)
Experimental: as §1
Aggregation agonists were used at a final concentration of 2.0×10^−5 M for ADP, 0.19 mg/ml for collagen, 500 μg/ml for arachidonic acid, and 1×10^−4 M for epinephrine. During the study, optical density was continuously recorded. The 0% and 100% aggregation levels were set with PRP and PPP, respectively. The maximal percentage of platelet aggregation was calculated as the light transmission between platelet-rich and platelet-poor plasma (100%). When a stable baseline was obtained with 450 μl of PRP, 50 μl of one of the aggregation-inducing agents was added. The maximum height and slope of the aggregation curves were determined. After the electrode was immersed in the sample, platelet aggregation to various agonists (collagen, ADP, arachidonic acid or epinephrine) was measured in ohms of impedance. The lag phase was defined as the delay time occurring between the addition of collagen and the beginning of the aggregation curve.
Blood samples were preincubated in 50 μM or 100 μM rasagiline, a MAO-B inhibitor, for 15 minutes and aggregation stimulated using collagen. […] Aggregation onset was also delayed by treatment with rasagiline.

| Compound | ability to dilate blood vessels (blood vessels [1]) | ability to stimulate NO production (NO production) | ability to inhibit contraction (blood vessels [2]) | ability to inhibit β-amyloid (β-amyloid) | also measured |
| --- | --- | --- | --- | --- | --- |
| C#CCN(C)[C@H](C)Cc1ccccc1 [1-deprenyl, L-deprenyl] | dilate blood vessels | stimulate NO production | inhibit contraction | inhibit β-amyloid | platelet aggregation induced by epinephrine (platelets): inhibited the platelet aggregation; blood vessel disruption and bleeding (rat brain; following 1-deprenyl administration): reduced; dose causing rapid NO-mediated endothelium-dependent vasodilation (blood vessels [1]; low doses): ≤ 10 µM; lowest concentration with stimulatory effect on NO production (NO production): 1 µM |
| Cl.NCCNC(=O)c1ccc(Cl)cc1 [RO-16-6491, N-(2-aminoethyl)4-chlorobenzamide hydrochloride] | dilate blood vessels | stimulate NO production | inhibit contraction | inhibit β-amyloid | – |
| Cl.NCCNC(=O)c1ncsc1-c1cccc(F)c1 [RO-41-1049, N-(2-aminoethyl)-5-(3-fluorophenyl)-4-thiazolecarboxamide hydro-chloride] | dilate blood vessels | stimulate NO production | inhibit contraction | inhibit β-amyloid | – |
| CC(=O)Oc1ccccc1C(=O)O [aspirin, Acetylsalicylic acid] | – | – | – | – | reduction of infarct size (rat brain; aspirin 30 mg/kg intraperitoneally 2 hours prior to MCAO, brains 48 hours after MCAO, vs untreated control): about 30%; relative risk reduction of CVD [3]: 25% |
| COC(=O)[C@H](c1ccccc1Cl)N1CCc2sccc2C1 [clopidogrel] | – | – | – | – | share of drug converted to active metabolites in the liver ([4]; by cytochrome P450 isoforms): 15%; share of prodrug converted into inactive metabolites ([4]; in vivo): 85% |
| C#CCN(C)CCCOc1ccc(Cl)cc1Cl [clorgyline] | dilate blood vessels | stimulate NO production | inhibit contraction | inhibit β-amyloid | – |
| C#CCN(C)Cc1ccccc1 [pargyline] | dilate blood vessels | stimulate NO production | inhibit contraction | inhibit β-amyloid | – |
| C#CCN[C@@H]1CCc2ccccc21 [rasagiline] | – | – | – | – | inhibition at 100 µM (human platelets [5]): 69%; aggregation onset (human platelets [6]; 50 μM or 100 μM, collagen): delayed; peak aggregation (human platelets [6]; 50 μM): 35%; peak aggregation (human platelets [6]; 100 μM): negligible levels |
